# From PMC7849011, “Defining the Antimalarial Activity of Cipargamin in Healthy Volunteers Experimentally Infected with Blood-Stage Plasmodium falciparum” (Antimicrobial Agents and Chemotherapy, 2021)
# Like-named read-outs stand apart in the source and are kept apart here.
# Legend:
# P. falciparum = details: IBSM, cited from earlier work
# P. falciparum 3D7 = assay: Induced blood-stage malaria (IBSM) volunteer infection study: parasitemia by 18S rRNA qPCR; type: in vivo, Plasmodium falciparum
# From the text: A single cohort of eight subjects was inoculated intravenously with P. falciparum 3D7-infected human erythrocytes (approximately 1,800 viable parasites) as previously described ([24]). Parasite growth was monitored by collecting blood samples and performing quantitative PCR (qPCR) targeting the gene encoding P. falciparum 18S rRNA ([25]). […] The dose of cipargamin selected was predicted to be subtherapeutic based on preclinical modeling ([7]) and pharmacokinetic data obtained in previous clinical studies ([8]) and thus chosen to facilitate modeling to estimate the pharmacokinetic/pharmacodynamic relationship. To monitor total parasitemia, blood samples were collected for 18S rRNA qPCR before inoculation, on day 3, twice daily on days 4 to 6, pretreatment on day 7, and 4, 8, 12, 16, 24, 30, and 36 h posttreatment, twice daily from day 9 to day 11, and every 1 to 3 days until day 35. Blood samples for gametocytemia measurements were collected on day 11, every 1 to 3 days between day 15 and day 29, and on day 35. […] Analyses were performed in R version 3.3.0. The PRR and parasite clearance half-life were estimated using the slope of the optimal fit for the log-linear relationship of the parasitemia decay as described previously ([27]).
compound,measurement,setting,value
Cc1cc(Nc2ccc(S(F)(F)(F)(F)F)cc2)n2nc(C(C)(F)F)nc2n1 [DSM265],parasite clearance half-life,P. falciparum; 150 mg single dose,9.4 h
OC(c1cc(C(F)(F)F)nc2c(C(F)(F)F)cccc12)C1CCCCN1 (centres unmarked) [mefloquine],parasite clearance half-life,P. falciparum; 10 mg/kg single dose,6.2 h
"Clc1ccc2c(N3CCN(CCCN4CCN(c5ccnc6cc(Cl)ccc56)CC4)CC3)ccnc2c1 [piperaquine, reference compound]",clearance of asexual parasite regrowth,P. falciparum 3D7; 960 mg single oral dose after regrowth post-cipargamin,successful in clearing asexual parasite regrowth
same,"second parasite regrowth, number of subjects","P. falciparum 3D7; after 960 mg piperaquine, 8 subjects",3 subjects
same,parasite clearance half-life,P. falciparum; 640 mg single dose,5.22 h
